Results from patent US8916132B2, “Benzimidazole-derived compounds use as markers in the case of neurodegenerative diseases” (Servicios Cientificos Neuroinnovation Ltda, priority 2008, dated 2014).
pKd, pKi: −log10 of the molar value. Where two headings read alike, the source gives them in different places.

Tests used:
Aβ Fibers = Aβ Fibers (Homo sapiens, UniProt P05067); conditions: Okamura et al., 2005; cited from earlier work
[1] = biological target: human tau protein aggregates (PHFs); test: ^3H-Astemizole saturation binding to tau protein aggregates; conditions: for Bmax/Kd Index: Tau Protein Aggregates (PHF)
[2] = biological target: Aβ1-42 Peptide Aggregates (Homo sapiens, UniProt P05067); test: ^3H-Astemizole saturation binding to Aβ1-42 peptide aggregates
in vitro = test: in vitro
Excerpt: (§1) The analyzed parameters were: specific permeability (Sp), this is an indicator of the compound's ability to cross the hematoencephalic barrier (HEB) by passive diffusion, and the partition coefficient (LogP), which corresponds to the partition coefficient of the compound between Octanol and the pH 7.4 phosphate tampon, which is a predictive element for the compound's penetration of the HEB.
The Parallel Artificial Membrane Permeability assay (PAMPA) is based on the ability of compounds to diffuse from a donor compartment through a Polyvinylidene Fluoride Membrane Filter (PVDF) covered with a phosphatidylcholine solution at 20% towards a second acceptor compartment, which is analyzed. […] The quantification was carried out by means of spectrophotometry, using pans 1 mm in length and with a capacity of 300 uL.

[3] = rat, in vivo, iv
Alzheimer PHF = Alzheimer PHF (Homo sapiens, UniProt P10636); test: ^3H-Astemizole displacement test, Alzheimer PHF
Tau Filaments in Vitro = Tau Filaments in Vitro (Homo sapiens, UniProt P10636); test: ^3H-Astemizole displacement test, tau filaments in vitro
[4] = In vivo pharmacokinetics in blood and cerebral tissue (HPLC/UV); conditions: male, C2 albino, rat, iv, astemizole 16 mg/kg, lansoprazole 8 mg/kg
[5] = test system: neurofibrillary tangles (NFTs); test: Fixation in neurofibrillary tangles in postmortem brain sections of Alzheimer patients; conditions: co-localization with PHF-1 antibody, tritiated or fluorescent marking
Protocol: This evaluation was carried out by means of immunohistochemistry with antibodies specific for senile plaque, 6E10 antibody reactive against 6-13 residues of Aβ peptide, and the tau-specific PHF1 antibody.
In short, postmortem brains of patients with a proven clinical diagnosis of Alzheimer's Disease are set in formalin at 10%, with slices with sections varying from 5 to 200 μm made, preferably with 20 μm. These slices are incubated in benzimidazoles marked pursuant to the present invention and afterwards incubated with the specific 6E10 and PHF1 antibodies to determine the co-localization of the marker in the tau protein structures of the cerebral sections under study.
For practical purposes and as part of the examples, the co-localization of marked tau with fluorophore conjugate antibodies with the localization of the fluorescently marked drug is analyzed. The co-localization of both drugs with the tau aggregated structures in the hippocampus region, entorhinal cortex and nucleous of Meynert in the postmortem brains with Alzheimer's Disease was reviewed.

[6] = Partition coefficient octanol / pH 7.4 tampon; conditions: for LogP Coefficient: octanol / pH 7.4 tampon, 25° C.; for CNS LogP: partition coefficient in relation to ability to cross the HEB
Protocol: as §1
Briefly, the partition coefficient (log Po/w) was determined in a pH 7.4 tampon solution, adjusted with 0.1 M sodium hydroxide. The organic phase utilized octanol saturated with the pH 7.4 tampon solution. A 1 mg/mL solution of the drug in methanol was prepared. Dilutions with concentrations ranging from 0.02 to 0.4 mg/mL were prepared from these solutions. Then […] portions were taken from each of these previously prepared stock solutions in 25 mL volumetric flasks, with the volume completed with the tampon pH 7.4. 25 ml of octanol where then measured and placed in three decantation funnels, with the previously prepared solutions added to each, mixing both phases by vigorous agitation during two minutes. […] Both phases are separated once equilibrium had been reached. The aqueous phase was centrifuged during 3 minutes to ensure complete separation of the phases. The entire process was carried out at a temperature of 25° C. The quantification was carried out with a UVN spectrophotometer.

mGluR7 = mGluR7 (Homo sapiens, UniProt Q14831); conditions: Yanamala et al., 2008; cited from earlier work
in vivo = conditions: male, C2 albino, rat, iv
[7] = saturation test, Tau Protein Aggregates

Aβ1-42 Peptide Aggregates, sequence (P05067 672-713): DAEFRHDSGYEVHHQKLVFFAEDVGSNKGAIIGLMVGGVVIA
Aβ Fibers, sequence (P05067 672-713 limits assumed): as the sequence (P05067 672-713) above
Alzheimer PHF, sequence (P10636 623-758 limits assumed): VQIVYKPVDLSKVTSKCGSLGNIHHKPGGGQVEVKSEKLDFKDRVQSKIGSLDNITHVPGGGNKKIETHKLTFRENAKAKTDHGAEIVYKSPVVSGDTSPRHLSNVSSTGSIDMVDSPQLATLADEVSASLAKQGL
mGluR7, sequence (Q14831 35-915): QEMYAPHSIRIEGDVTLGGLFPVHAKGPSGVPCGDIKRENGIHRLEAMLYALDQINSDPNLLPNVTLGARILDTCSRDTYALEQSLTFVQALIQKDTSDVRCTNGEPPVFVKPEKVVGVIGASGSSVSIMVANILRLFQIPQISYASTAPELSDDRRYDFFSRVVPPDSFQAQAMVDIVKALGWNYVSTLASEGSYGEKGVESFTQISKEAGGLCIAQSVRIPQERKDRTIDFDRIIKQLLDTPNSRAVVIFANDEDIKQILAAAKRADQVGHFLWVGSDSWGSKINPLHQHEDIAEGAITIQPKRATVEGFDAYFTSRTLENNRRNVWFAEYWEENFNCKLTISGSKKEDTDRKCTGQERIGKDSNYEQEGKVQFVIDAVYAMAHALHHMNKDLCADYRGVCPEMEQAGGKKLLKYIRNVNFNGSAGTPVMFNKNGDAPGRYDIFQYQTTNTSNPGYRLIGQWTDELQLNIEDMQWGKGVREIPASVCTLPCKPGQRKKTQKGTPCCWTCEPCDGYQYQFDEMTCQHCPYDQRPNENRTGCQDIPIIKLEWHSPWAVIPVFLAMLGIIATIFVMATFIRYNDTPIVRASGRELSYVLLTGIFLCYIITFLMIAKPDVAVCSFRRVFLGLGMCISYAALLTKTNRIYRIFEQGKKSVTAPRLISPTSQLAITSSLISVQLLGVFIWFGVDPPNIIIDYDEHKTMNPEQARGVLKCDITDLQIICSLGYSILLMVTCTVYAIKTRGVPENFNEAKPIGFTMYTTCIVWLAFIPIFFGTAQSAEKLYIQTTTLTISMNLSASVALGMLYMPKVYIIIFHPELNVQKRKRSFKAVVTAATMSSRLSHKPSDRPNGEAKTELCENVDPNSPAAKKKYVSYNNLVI
Tau Filaments in Vitro, sequence (P10636 1-441 isoform P10636-8): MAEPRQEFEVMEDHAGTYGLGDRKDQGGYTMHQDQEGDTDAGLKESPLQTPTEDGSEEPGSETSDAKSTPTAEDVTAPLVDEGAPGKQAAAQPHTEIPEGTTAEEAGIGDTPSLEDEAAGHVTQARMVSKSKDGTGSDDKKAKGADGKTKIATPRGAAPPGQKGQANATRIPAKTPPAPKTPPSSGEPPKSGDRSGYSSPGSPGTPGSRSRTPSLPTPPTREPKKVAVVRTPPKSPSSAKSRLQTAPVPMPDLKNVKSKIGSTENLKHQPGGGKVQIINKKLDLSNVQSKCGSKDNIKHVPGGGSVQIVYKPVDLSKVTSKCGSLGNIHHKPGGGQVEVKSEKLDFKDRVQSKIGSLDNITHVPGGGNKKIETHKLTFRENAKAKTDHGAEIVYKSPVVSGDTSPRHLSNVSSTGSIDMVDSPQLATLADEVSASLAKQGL

Structure (SMILES): Cc1c(OCC(F)(F)[18F])ccnc1C[S+]([O-])c1nc2ccccc2[nH]1 (centres unmarked) [^18F-Lansoprazole]
- brain/blood bio-distribution relation (at 30 minutes): 0.23
- reaches the brain (at 30 minutes): 0.3%
- brain/blood bio-distribution relation (at 60 minutes): 1.27
- reaches the brain (at 60 minutes): 0.14%

Structure (SMILES): CNc1ccc(/C=C/c2nc3ccc(OCCF)cc3o2)cc1 [BF168]
- pKi (Aβ Fibers): 8.19

Structure (SMILES): COc1ccc(CCN2CCC(Nc3nc4ccccc4n3Cc3ccc(F)cc3)CC2)cc1 [^3H-Astemizole]
- pKd [1, 7]: 8.40
- pKd ([2]; saturation test): 8.68

Structure (SMILES): [3H]C([3H])([3H])Oc1ccc(CCN2CCC(Nc3nc4ccccc4n3Cc3ccc(F)cc3)CC2)cc1 [^3H-Astemizole]
- Bmax/Kd Index [1]: 3.316
- binding affinity to tau protein aggregate forms compared with Aβ ([1]; at low concentrations, FIG. 7): greater binding affinity to tau protein aggregate forms than to Aβ
- Bmax [1, 7]: 13.07 nM
- Bmax/Kd Index [2]: 0.057
- Bmax ([2]; saturation test): 0.12 pmol/nmol Aβ1-42

Structure (SMILES): Cc1c(OCC(F)(F)F)ccnc1C[S+]([O-])c1nc2ccccc2[nH]1 (centres unmarked) [Lansoprazole]
- CNS Transport (in vitro; PAMPA): Positive
- Coefficient (Sp) specific permeability (in vitro; PAMPA): 3.63E−05
- persistency in the encephalon / brain ([3]; male, C2 albino): at least 3 hours
- average life in plasma compared with brain [3]: less than in the brain
- pKi (Alzheimer PHF): 6.08
- pKi (Tau Filaments in Vitro): 8.57
- Tmax ([4]; brain (cerebral tissue), maximum concentration (Tmax) in the brain, cerebral tissue): 37 min
- Tmax ([4]; whole blood (intracardiac), maximum concentration (Tmax) in blood, intracardiac blood): 30 min
- marking of tau aggregates / NFTs in postmortem AD brain sections [5]: bond to the NFTs structures
- marking of tau aggregates / NFTs in postmortem AD brain sections ([5]; listed as Lansoprazol): fluorescent staining of Tau protein aggregates
- marking of tau aggregates / NFTs in postmortem AD brain sections ([5]; listed as lansoprazole): efficiently and selectively mark those sectors positive for tau

Structure (SMILES): C[N+]12CCC(CC1)C(OC(=O)C(O)(c1ccccc1)c1ccccc1)C2 (centres unmarked) [Clidinium Bromide]
- CNS Transport (in vitro): Negative
- Papp (in vitro): 0.029 ×10⁻⁶ cm/s
- LogP Coefficient [6]: −0.092
- CNS LogP [6]: Unfavorable

Structure (SMILES): c1ccc(C(NCCNC(c2ccccc2)c2ccccc2)c2ccccc2)cc1 [AMN82]
- Binding Energies Autodock (mGluR7): -7.56 kcal/mol

Structure (SMILES): CCCC(C)C1(CC)C(=O)NC(=S)NC1=O (centres unmarked) [Thiopental]
- Papp (in vitro): 17 ×10⁻⁶ cm/s
- LogP Coefficient [6]: 1.4

Structure (SMILES): COc1ccc(CCN2CCC(Nc3nc4ccccc4n3Cc3ccc(F)cc3)CC2)cc1 [Astemizole]
- CNS Transport (in vitro; PAMPA): Positive
- Papp (in vitro; PAMPA): 147 ×10⁻⁶ cm/s
- LogP Coefficient [6]: 5.57
- CNS LogP [6]: Favorable
- average life in plasma compared with brain [3]: less than in the brain
- Tmax (in vivo; maximum concentration (Tmax) in blood): 28 min
- Tmax (in vivo; maximum concentration (Tmax) in the brain): 55 min
- Bmax/Kd Index [1]: 3.316
- Bmax/Kd Index [2]: 0.057
- marking of tau aggregates / NFTs in postmortem AD brain sections [5]: bond to the NFTs structures
- marking of tau aggregates / NFTs in postmortem AD brain sections ([5]; listed as astemizole): efficiently and selectively mark those sectors positive for tau
